Data from ChEMBL document CHEMBL3244200, “8-Carboxy-6-sulfamyldibenz[b,f][1,4]oxazepines and -thiazepines as potential high-ceiling diuretics” (1978).
The source made the active and inactive calls. The rule behind the calls is not given here.

Columns and labels:
Rattus norvegicus [1] = assay: High-ceiling diuretic activity in Wistar rat assessed as drug to urea ratio to cause diuresis at 50 mg/kg, po measured for 5 hrs (reference value: 0.44 +/- 0.05 no unit); type: functional, Urine
Canis familiaris = assay: High-ceiling diuretic activity in Beagle dog at 20 mg/kg, po; type: functional, organism-based; parameters: dose 20 mg/kg; conditions: Canis lupus familiaris, Urine
Rattus norvegicus [2] = assay: High-ceiling diuretic activity in Wistar rat assessed as drug to urea ratio to increase Na+ level in urine at 50 mg/kg, po measured for 5 hrs by flame photometric analysis (reference value: 0.47 +/- 0.07 no unit); type: functional
Rattus norvegicus [3] = assay: High-ceiling diuretic activity in Wistar rat assessed as drug to urea ratio to increase K+ level in urine at 50 mg/kg, po measured for 5 hrs by flame photometric analysis (reference value: 0.57 +/- 0.08 no unit); type: functional

Compound | Ratio (Rattus norvegicus [1]) | Activity (Canis familiaris) | Ratio (Rattus norvegicus [2]) | Ratio (Rattus norvegicus [3])
NS(=O)(=O)c1cc(C(=O)O)cc2c1Sc1ccccc1C(=O)N2 | 0.56 | inactive | 0.71 | 0.62
COC(=O)c1cc2c(c(S(N)(=O)=O)c1)Oc1ccccc1C(=O)N2 | 0.79 |  | 1.24 | 0.63
CCCCNc1cc(C(=O)O)cc(S(N)(=O)=O)c1Oc1ccccc1 [BUMETANIDE] | 2.6 |  | 4.66 | 0.97
COC(=O)c1cc2c(c(S(N)(=O)=O)c1)Sc1ccccc1C(=O)N2 | 0.25 |  | 0.42 | 0.41
NS(=O)(=O)c1cc(C(=O)O)cc2c1Oc1ccccc1CN2 | 0.47 |  | 1 | 0.9
NS(=O)(=O)c1cc(C(=O)O)cc2c1Sc1ccccc1CN2 | 0.07 | inactive | 0.13 | 0.05
